Converted amounts (≈) assume the structure as drawn. Where two headings read alike, the source gives them in different places.
Columns and labels:
[1] = system: Mycobacterium tuberculosis (MTB); assay: MIC by proportions method (NCCLS M24-T, 1995), 82 MTB strains; format: cell-based; conditions: Mycobacterium tuberculosis; 82 MTB strains
Aeromonas spp. = assay: MIC by agar dilution (NCCLS M7-A4), 288 enteropathogenic isolates, eight quinolones; format: cell-based; conditions: Aeromonas spp. (n = 16)
Campylobacter jejuni [2] = assay: MIC by agar dilution (NCCLS M7-A4), 5% sheep blood, microaerophilic 48 h; format: cell-based; conditions: Campylobacter jejuni (n=91)
Enterococcus faecalis = assay: MIC by agar dilution (NCCLS), 411 isolates Buenos Aires 1998-99; format: cell-based; conditions: Enterococcus faecalis (n = 48)
Streptococcus pyogenes = assay: MIC by NCCLS reference broth microdilution, 450 respiratory tract pathogens; format: cell-based; conditions: Streptococcus pyogenes
Moraxella catarrhalis = assay: as above; format: cell-based
Streptococcus pneumoniae = assay: MIC by broth microdilution (NCCLS), dried MicroScan panels, clinical isolates 1998-1999; format: cell-based; conditions: for MIC90: Streptococcus pneumoniae
Staphylococcus aureus = assay: microbe, parasite or virus in culture; format: cell-based
Enterobacter aerogenes = assay: MIC by NCCLS broth microdilution, 1100 Japanese clinical isolates 1997-1998; format: cell-based; conditions: Enterobacter aerogenes (n=35)
Enterobacter cloacae = assay: as above; format: cell-based; conditions: Enterobacter cloacae (n=40)
Salmonella spp. [3] = assay: as above; format: cell-based; conditions: Salmonella spp. (n=29)
Morganella morganii = assay: as above; format: cell-based
Salmonella spp. [4] = assay: MIC by agar dilution (NCCLS M7-A4), 288 enteropathogenic isolates, gemifloxacin and 15 other antimicrobials; format: cell-based
Hafnia alvei = assay: as above; format: cell-based; conditions: Hafnia alvei N= 32
Shigella spp. = assay: as above; format: cell-based; conditions: Shigella spp. N= 21
Method in brief: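 Agar dilution with ~10^4 cfu/spot inoculum; plates incubated aerobically at 35 °C for 24 h, except C. jejuni, held microaerophilically for 48 h. MIC taken as lowest antibiotic concentration with no visible growth.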

Campylobacter jejuni [5] = assay: as above; conditions: for MIC: Campylobacter jejuni
[6] = erythromycin resistant C phenotype [MLSB] (n = 20)
[7] = erythromycin resistant I phenotype [MLSB] (n = 20)
[8] = Streptococcus pneumoniae (302 isolates)
[9] = 24 h, read-out: MIC (mg/L) Range

Q: Which results are given for `C[C@H]1COc2c(N3CCN(C)CC3)c(F)cc3c(=O)c(C(=O)O)cn1c23` [Levofloxacin, levofloxacin]?
A: MIC90 [1]: 1 mg/L (≈ 2.77 µM); % Susceptible (Aeromonas spp.): 100%; MIC50 (Aeromonas spp.): ≤ 0.015 mg/L; MIC90 (Aeromonas spp.): ≤ 0.015 mg/L; MIC Range (Aeromonas spp.): ≤0.015 to 0.06 mg/L; % Susceptible (Campylobacter jejuni [2]): 31.86%; MIC50 (Campylobacter jejuni [2]): 8 mg/L (≈ 22.1 µM); MIC90 (Campylobacter jejuni [2]): 32 mg/L (≈ 88.6 µM); MIC Range (Campylobacter jejuni [2]): 0.06 to 128 mg/L; MIC90 (Enterococcus faecalis): > 32 mg/L; MIC (Streptococcus pyogenes; Streptococcus pyogenes (n = 100)): 0.06 to 2 mg/L (≈ 0.166 to 5.53 µM); MIC (Streptococcus pyogenes; [6]): 0.25 to 1 mg/L (≈ 0.692 to 2.77 µM); MIC50 (Streptococcus pyogenes; [6]): 0.25 mg/L (≈ 0.692 µM); MIC90 (Streptococcus pyogenes; [6]): 0.25 mg/L (≈ 0.692 µM); MIC (Streptococcus pyogenes; [7]): 0.25 to 2 mg/L (≈ 0.692 to 5.53 µM); MIC50 (Streptococcus pyogenes; [7]): 0.25 mg/L (≈ 0.692 µM); MIC90 (Streptococcus pyogenes; [7]): 0.25 mg/L (≈ 0.692 µM); MIC (Streptococcus pyogenes; erythromycin resistant M phenotype (n = 20)): 0.06 to 1 mg/L (≈ 0.166 to 2.77 µM); MIC (Streptococcus pyogenes; fully susceptible (n = 20)): 0.25 to 2 mg/L (≈ 0.692 to 5.53 µM); MIC (Streptococcus pyogenes; multi-drug resistant (n = 20)): 0.25 to 1 mg/L (≈ 0.692 to 2.77 µM); MIC (Moraxella catarrhalis; Moraxella catarrhalis (n = 50)): 0.00375 to 0.03 mg/L (≈ 0.0104 to 0.083 µM); MIC50 (Moraxella catarrhalis; Moraxella catarrhalis (n = 50)): 0.015 mg/L (≈ 0.0415 µM); MIC90 (Moraxella catarrhalis; Moraxella catarrhalis (n = 50)): 0.03 mg/L (≈ 0.083 µM); MIC (Moraxella catarrhalis; β-lactamase negative (n = 13)): 0.00375 to 0.03 mg/L (≈ 0.0104 to 0.083 µM); MIC50 (Moraxella catarrhalis; β-lactamase negative (n = 13)): 0.03 mg/L (≈ 0.083 µM); MIC90 (Moraxella catarrhalis; β-lactamase negative (n = 13)): 0.03 mg/L (≈ 0.083 µM); MIC (Moraxella catarrhalis; β-lactamase positive (n = 37)): 0.00375 to 0.03 mg/L (≈ 0.0104 to 0.083 µM); MIC50 (Moraxella catarrhalis; β-lactamase positive (n = 37)): 0.015 mg/L (≈ 0.0415 µM); MIC90 (Moraxella catarrhalis; β-lactamase positive (n = 37)): 0.03 mg/L (≈ 0.083 µM); MIC50 (Streptococcus pneumoniae; [8]): 1 mg/L (≈ 2.77 µM); MIC Range (Streptococcus pneumoniae; [8]): ≤0.015 to 2 mg/L; MIC90 (Streptococcus pneumoniae; Erythromycin-resistant (86)): 1 mg/L (≈ 2.77 µM); MIC90 (Streptococcus pneumoniae; Erythromycin-sensitive (216)): 2 mg/L (≈ 5.53 µM); MIC90 (Streptococcus pneumoniae; Penicillin-intermediate (124)): 1 mg/L (≈ 2.77 µM); MIC90 (Streptococcus pneumoniae; Penicillin-resistant (80)): 1 mg/L (≈ 2.77 µM); MIC90 (Streptococcus pneumoniae; Penicillin-sensitive (98)): 1 mg/L (≈ 2.77 µM); MIC90 (Streptococcus pneumoniae; [8]): 1 mg/L (≈ 2.77 µM); MIC Range (Staphylococcus aureus; Methicillin-resistant (38)): 0.25 to 128 mg/L; MIC Range (Staphylococcus aureus; Methicillin-susceptible (9)): 0.125 to 1 mg/L; MIC50 (Staphylococcus aureus; Staphylococcus aureus, Methicillin-resistant (38)): 8 mg/L (≈ 22.1 µM); MIC90 (Staphylococcus aureus; Staphylococcus aureus, Methicillin-susceptible (9), read-out: MIC90): 1 mg/L (≈ 2.77 µM); MIC (Staphylococcus aureus; Staphylococcus aureus, S. aureus KU2240, mutant type Wild (wild strain)): 0.25 mg/L (≈ 0.692 µM); MIC (Staphylococcus aureus; Staphylococcus aureus, S. aureus KU2243, mutant type G+T (DNA gyrase and topoisomerase IV)): > 128 mg/L; MIC (Staphylococcus aureus; Staphylococcus aureus, S. aureus KU2245, mutant type G+T (DNA gyrase and topoisomerase IV)): 32 mg/L (≈ 88.6 µM); MIC (Staphylococcus aureus; Staphylococcus aureus, S. aureus KU2246, mutant type T (DNA topoisomerase IV)): 1 mg/L (≈ 2.77 µM); MIC Range (Enterobacter aerogenes): 0.016 to 0.25 mg/L; MIC50 (Enterobacter aerogenes; Klebsiella aerogenes): 0.032 mg/L (≈ 0.0886 µM); MIC90 (Enterobacter aerogenes; Klebsiella aerogenes): 0.063 mg/L (≈ 0.174 µM); MIC50 (Enterobacter cloacae): 0.032 mg/L (≈ 0.0886 µM); MIC90 (Enterobacter cloacae): 0.5 mg/L (≈ 1.38 µM); MIC Range (Enterobacter cloacae): 0.016 to 1 mg/L; MIC50 (Salmonella spp. [3]): 0.063 mg/L (≈ 0.174 µM); MIC90 (Salmonella spp. [3]): 0.063 mg/L (≈ 0.174 µM); MIC Range (Salmonella spp. [3]): 0.032 to 0.063 mg/L; MIC90 (Morganella morganii; Morganella morganii): 0.125 mg/L (≈ 0.346 µM); MIC Range (Morganella morganii; Morganella morganii (n=40)): 0.016 to 8 mg/L; MIC50 (Morganella morganii; Morganella morganii (n=40), read-out: MIC50): 0.032 mg/L (≈ 0.0886 µM); MIC (Salmonella spp. [4]; S. hadar(2), isolates with MICs for ciprofloxacin ≥[…], read-out: MIC): 1 mg/L (≈ 2.77 µM); MIC (Salmonella spp. [4]; S. newport(1), isolate with MIC for ciprofloxacin ≥[…], read-out: MIC): 1 mg/L (≈ 2.77 µM); MIC (Salmonella spp. [4]; S. virchow(2), isolates with MICs for ciprofloxacin ≥[…], read-out: MIC): 0.25 mg/L (≈ 0.692 µM); MIC (mg/L) Range (Salmonella spp. [4]; Salmonella spp. N= 106): 0.06 to 1 mg/L; MIC (Salmonella spp. [4]; Salmonella, S. tshiongwe(1), isolate with MIC for ciprofloxacin ≥[…], read-out: MIC): 1 mg/L (≈ 2.77 µM); MIC (Salmonella spp. [4]; Salmonella, read-out: MIC (mg/L) 50%, Salmonella spp. N= 106): 0.06 mg/L (≈ 0.166 µM); MIC (Salmonella spp. [4]; Salmonella, read-out: MIC (mg/L) 90%, Salmonella spp. N= 106): 0.25 mg/L (≈ 0.692 µM); MIC (Hafnia alvei; [9]): 0.015 to 0.03 mg/L (≈ 0.0415 to 0.083 µM); MIC (Hafnia alvei; read-out: MIC (mg/L) 50%): 0.03 mg/L (≈ 0.083 µM); MIC (Hafnia alvei; read-out: MIC (mg/L) 90%): 0.03 mg/L (≈ 0.083 µM); MIC (Shigella spp.; [9]): 0.015 to 0.03 mg/L (≈ 0.0415 to 0.083 µM); MIC (Shigella spp.; read-out: MIC (mg/L) 50%): 0.03 mg/L (≈ 0.083 µM); MIC (Shigella spp.; read-out: MIC (mg/L) 90%): 0.03 mg/L (≈ 0.083 µM); MIC (mg/L) Range (Campylobacter jejuni [5]; Campylobacter jejuni N= 91): 0.06 to 128 mg/L; MIC (Campylobacter jejuni [5]; read-out: MIC (mg/L) 50%): 8 mg/L (≈ 22.1 µM); MIC (Campylobacter jejuni [5]; read-out: MIC (mg/L) 90%): 32 mg/L (≈ 88.6 µM)
